How the values were obtained:
Type in all cases: in vivo
[1] = test system: Kochia scoparia (KCHSC; Bassia scoparia); experiment: Herbicidal post-emergence action (B), 1280 g/ha
Text: (§1) ABUTH: Abutilon theophrasti AGSTE: Agrostis tenuis ALOMY: Alopecurus myosuroides AMARE Amaranthus retroflexus DIGSA: Digitaria sanguinalis ECHCG: Echinochloa crus-galli KCHSC: Kochia scoparia LOLRI: Lolium rigidum MATIN: Matricaria inodora POAAN: Poa annua POLCO: Polygonum convolvulus SETVI: Setaria viridis STEME: Stellaria media VERPE: Veronica persica VIOTR: Viola tricolor
(§2) Seeds of mono- and dicotyledonous weed plants were placed in plastic pots in sandy loam soil (doubly sown with in each case one species of mono- or dicotyledonous weed plants per pot), covered with soil and cultivated in a greenhouse under controlled growth conditions. 2 to 3 weeks after sowing, the test plants were treated at the one-leaf stage. The compounds of the invention, formulated in the form of wettable powders (WP) or as emulsion concentrates (EC), were applied onto the green parts of the plants as aqueous suspension or emulsion with addition of 0.5% additive at a water application rate of 600 liters per hectare (converted). After the test plants had been kept in the greenhouse under optimum growth conditions for about 3 weeks, the activity of the preparations was rated visually in comparison to untreated controls. For example, 100% activity=the plants have died, 0% activity=like control plants.
(§3) Tables B1 to B12, below, show the effects of selected compounds of the general formula (I) according to table 1 on various harmful plants and an application rate corresponding to 1280 g/ha obtained by the experimental procedure mentioned above.

[2] = test system: Amaranthus retroflexus (AMARE); experiment: Herbicidal post-emergence action (B), 1280 g/ha; conditions: rated visually after about 3 weeks vs untreated controls
Text: as §1, §2, §3

Veronica persica (VERPE) [3] = experiment: Herbicidal post-emergence action (B), 1280 g/ha
Text: as §1, §2, §3

[4] = test system: Kochia scoparia (KCHSC; Bassia scoparia); experiment: Herbicidal pre-emergence action (A), 1280 g/ha; conditions: visual grading after ca. 3 weeks vs untreated controls
Text: as §1
(§4) Seeds of mono- and dicotyledonous weed plants were sown in plastic pots (double sowings with one species of mono- and one species of dicotyledonous weed plants per pot), in sandy loam, and covered with soil. The compounds according to the invention, formulated in the form of wettable powders (WP) or as emulsifiable concentrates (EC), were applied to the surface of the covering soil as aqueous suspension or emulsion, with the addition of 0.5% of an additive, at an application rate of 600 l of water per hectare (converted). Following treatment, the pots were placed in a greenhouse and kept under optimum growth conditions for the test plants. The visual grading of the damage to the test plants was carried out after ca. 3 weeks in comparison to untreated controls (herbicidal effect in percent (%): 100% effect=plants have died off, 0% effect=as control plants).
(§5) Tables A1 to A12, below, show the effects of selected compounds of the general formula (I) according to table 1 on various harmful plants and an application rate corresponding to 1280 g/ha obtained by the experimental procedure mentioned above.

[5] = test system: Digitaria sanguinalis (DIGSA); experiment: Herbicidal pre-emergence action (A), 1280 g/ha; conditions: visual grading after ca. 3 weeks vs untreated controls, 100% = plants have died off, 0% = as control plants
Text: as §1, §4, §5

[6] = test system: Amaranthus retroflexus (AMARE); experiment: Herbicidal pre-emergence action (A), 1280 g/ha; conditions: visual grading after ca. 3 weeks vs untreated controls
Text: as §1, §4, §5

Veronica persica (VERPE) [7] = experiment: Herbicidal pre-emergence action (A), 1280 g/ha; conditions: visual grading after ca. 3 weeks vs untreated controls
Text: as §1, §4, §5

Setaria viridis (SETVI) = experiment: Herbicidal pre-emergence action (A), 1280 g/ha; conditions: visual grading after ca. 3 weeks vs untreated controls
Text: as §1, §4, §5

[8] = test system: Echinochloa crus-galli (ECHCG); experiment: Herbicidal post-emergence action (B), 1280 g/ha; conditions: rated visually after about 3 weeks vs untreated controls
Text: as §1, §2, §3

Poa annua (POAAN) [9] = experiment: Herbicidal post-emergence action (B), 1280 g/ha; conditions: rated visually after about 3 weeks vs untreated controls
Text: as §1, §2, §3

[10] = test system: Echinochloa crus-galli (ECHCG); experiment: Herbicidal pre-emergence action (A), 1280 g/ha; conditions: visual grading after ca. 3 weeks vs untreated controls, 100% = plants have died off, 0% = as control plants
Text: as §1, §4, §5

Stellaria media (STEME) [11] = experiment: Herbicidal pre-emergence action (A), 1280 g/ha; conditions: visual grading after ca. 3 weeks vs untreated controls
Text: as §1, §4, §5

Lolium rigidum (LOLRI) = experiment: Herbicidal pre-emergence action (A), 1280 g/ha; conditions: visual grading after ca. 3 weeks vs untreated controls, 100% = plants have died off, 0% = as control plants
Text: as §1, §4, §5

Poa annua (POAAN) [12] = experiment: Herbicidal pre-emergence action (A), 1280 g/ha; conditions: visual grading after ca. 3 weeks vs untreated controls, 100% = plants have died off, 0% = as control plants
Text: as §1, §4, §5

Stellaria media (STEME) [13] = experiment: Herbicidal post-emergence action (B), 1280 g/ha
Text: as §1, §2, §3

[14] = test system: Alopecurus myosuroides (ALOMY); experiment: Herbicidal post-emergence action (B), 1280 g/ha; conditions: rated visually after about 3 weeks vs untreated controls
Text: as §1, §2, §3

[15] = test system: Alopecurus myosuroides (ALOMY); experiment: Herbicidal pre-emergence action (A), 1280 g/ha; conditions: visual grading after ca. 3 weeks vs untreated controls, 100% = plants have died off, 0% = as control plants
Text: as §1, §4, §5

[16] = test system: Matricaria inodora (MATIN); experiment: Herbicidal pre-emergence action (A), 1280 g/ha; conditions: visual grading after ca. 3 weeks vs untreated controls
Text: as §1, §4, §5

Row | Compound | herbicidal effect KCHSC [1] [%] | herbicidal activity AMARE [2] [%] | herbicidal effect VERPE (Veronica persica (VERPE) [3]) [%] | herbicidal effect KCHSC [4] [%] | DIGSA, herbicidal effect in percent (%) [5] [%] | herbicidal effect AMARE [6] [%] | herbicidal effect VERPE (Veronica persica (VERPE) [7]) [%] | herbicidal effect SETVI (Setaria viridis (SETVI)) [%] | herbicidal activity ECHCG [8] [%] | herbicidal activity POAAN (Poa annua (POAAN) [9]) [%] | ECHCG, herbicidal effect in percent (%) [10] [%] | herbicidal effect STEME (Stellaria media (STEME) [11]) [%] | LOLRI, herbicidal effect in percent (%) (Lolium rigidum (LOLRI)) | POAAN, herbicidal effect in percent (%) (Poa annua (POAAN) [12]) | herbicidal effect STEME (Stellaria media (STEME) [13]) [%] | herbicidal activity ALOMY [14] [%] | ALOMY, herbicidal effect in percent (%) [15] [%] | herbicidal effect MATIN [16] [%]
1 | CSc1nc2nc(-c3ccccc3C)c(C)cc2s1 [Example I-043] | 90 | 100 | 90 | 90 | 90 | 90 | 100 | 90 | – | – | – | – | – | – | – | – | – | –
2 | CCOc1nc2nc(-c3ccccc3C)c(CC)cc2s1 [Example I-055] | – | – | – | 100 | – | – | – | 100 | 90 | 100 | 100 | 90 | 90 | 100 | – | – | – | –
3 | N#CCc1nc2nc(-c3ccccc3F)c(Br)cc2s1 [Example I-071] | 90 | 90 | 90 | 90 | – | 90 | 90 | 90 | – | – | 100 | 90 | 100 | 100 | 90 | 90 | – | –
4 | Cc1ccccc1-c1nc2ncsc2cc1Cl [Example I-083] | 90 | 100 | 90 | – | 100 | – | 100 | 100 | – | – | 100 | 100 | 100 | 100 | 100 | – | 100 | –
5 | CCOC(=O)C(C#N)c1nc2nc(-c3ccccc3F)c(Br)cc2s1 (stereo not drawn) [Example I-086] | 90 | 100 | – | – | – | – | – | – | – | – | – | – | – | 90 | – | 100 | 90 | –
6 | Cc1nc2nc(-c3ccccc3Cl)c(C)cc2s1 [Example I-103] | – | – | – | – | 90 | – | – | 90 | – | – | 90 | 100 | – | 90 | – | – | – | –
7 | Cc1cc2sc([S+](C)[O-])nc2nc1-c1ccccc1F (stereo not drawn) [Example I-104] | 100 | 90 | 100 | 100 | 100 | 90 | 90 | 100 | – | – | – | 90 | – | 100 | – | – | – | 90
8 | Cc1ncccc1-c1nc2ncsc2cc1Br [Example I-129] | – | – | – | 90 | – | 90 | – | 100 | – | – | – | – | 90 | 100 | – | – | 90 | –
9 | Cc1cscc1-c1nc2ncsc2cc1Br [Example I-141] | 90 | 90 | 90 | – | – | 90 | 90 | 100 | 90 | – | 100 | 90 | – | 100 | – | – | 100 | 90
10 | Cc1cc2sc(S)nc2nc1-c1ccccc1F [Example I-155] | 100 | 100 | 90 | 90 | 90 | 90 | 90 | 100 | – | – | 100 | – | – | 100 | – | – | – | –
11 | CCc1cc2sc(S)nc2nc1C1=CCCCC1 [Example I-176] | 90 | – | 90 | 90 | 90 | – | – | 100 | – | – | – | 90 | – | – | – | – | – | –
12 | Cc1cc(C)c(-c2nc3ncsc3cc2C)s1 [Example I-195] | 90 | – | – | 90 | – | – | 90 | 100 | – | 100 | 100 | 90 | 100 | 100 | – | 100 | – | 90
13 | Cc1cc2scnc2nc1-c1sc(Br)cc1C [Example I-198] | 90 | – | 100 | – | – | – | 90 | 100 | – | – | 100 | 90 | 90 | 100 | – | 90 | 100 | –

Source: patent US20230151025A1, “SUBSTITUTED THIAZOLOPYRIDINES, SALTS THEREOF AND THEIR USE AS HERBICIDALLY ACTIVE SUBSTANCES” (Bayer Aktiengesellschaft, priority 2020, published 2023)
